Measurements: patent publication US8367666B2 (priority 2004, dated 2013)
Read-outs that look alike come from different tables or passages of the source.

Assays:
CB2 receptor [1] = biological target: T1, CB2 receptor (Homo sapiens, UniProt P34972); test: Human cannabinoid receptor bonding inhibition test ([3H]CP55940), CB2; assay type: binding; design: expressed in transfected cells; membrane fraction
CB1 receptor [2] = biological target: T2, CB1 receptor (Homo sapiens, UniProt P21554); test: cAMP formation inhibition experiment through a cannabinoid receptor (forskolin stimulation), CB1; assay type: cell-based; design: expressed in transfected cells; host or cells: CHO cells
Experimental: A compound being tested was added in the CHO cell which had mad human CB1 or CB2 receptor reveal and incubated for 15 minutes, and then forskolin (the final concentration 4 μM, and manufactured by SIGMA Corp.) was added and the mixture was incubated for 20 minutes. After the reaction had been stopped by adding 1M hydrochloric acid, the amount of cAMP in the supernatant was measured with the use of Cyclic AMP kit (made by the CIS Diagnostic Corp.).

CB2 receptor [3] = biological target: T1, CB2 receptor; test: cAMP formation inhibition experiment through a cannabinoid receptor (forskolin stimulation), CB2; assay type: cell-based; design: expressed in transfected cells; host or cells: CHO cells
CB1 receptor [4] = biological target: T2, CB1 receptor; test: Human cannabinoid receptor bonding inhibition test ([3H]CP55940), CB1; assay type: binding; design: expressed in transfected cells; membrane fraction
[5] = system: scratching action induced by Compound 48/80; test: Anti-pruritic activity test by application (Compound 48/80 scratching); assay type: in vivo, mouse (Crj:CD-1 (ICR)); settings: topical, read-out: Itching inhibition ratio % (Concentration %)
Experimental: 1) Preparation of the compound and the reagent: The compound being tested was dissolved in acetone (SIGMA). Compound 48/80 (SIGMA) was dissolved in physiological saline (m by Otsuka Pharmaceutical Co., Ltd.) so as to be 60 μg/mL.
2) Animals: Female Crj: CD-1 (ICR) mice of 6 to 10 age in week (Japan Charles Liver) were used as laboratory animals. The animals were fed in the barrier breeding room where […] in room temperature, 30 to 70% in humidity, and the light and shade condition existed every 12 hours and feed (CE-2: Japan Crea) and the drinking water were freely taken. The hair of dorsa (from the cervical region of the back to the center of the back) of the animals were cut with a hair clipper two days or more before the anti-pruritic activity is evaluated, those with no wound, rubefaction, and thickening of the skin on the dehaired part were chosen and supplied to the experiment on the day of the evaluation. 3) Evaluation procedures: The acetone solution of the compound being tested was applied by 50 μL on the dehaired parts of the mice with a pipeter. On the mice of the control group, 50 μL of acetone was applied. The 15 minutes later, 50 μL (corresponding to 3 μg) of Compound 48/80 solution was injected intradermally in the compound applied parts with the use of a injector (Terumo Corporation), the mice were individually put in five observation cages made of acrylate resin at once, and the scratching action (action of scratching the injection part by the hind leg) frequency during 30 minutes was measured. The evaluation was carried out in one group of 5 to 7 mice. 4) Data processing: The experiment results were shown by the mean values. The test of the significant difference of the compound applying group to the control group was conducted with Welch's t-test, and p<0.05 was assumed to be significant.

[6] = read-out: Agonist activity (nM) CB1
[7] = [3H]CP55940 0.5 nM, membrane preparation of CHO cells expressing CB2, Ki calculated from IC50, read-out: Binding activity (nM) CB2
[8] = [3H]CP55940 0.5 nM, membrane preparation of CHO cells expressing CB1, Ki calculated from IC50, read-out: Binding activity (nM) CB1

T1 sequence (P34972 whole entry): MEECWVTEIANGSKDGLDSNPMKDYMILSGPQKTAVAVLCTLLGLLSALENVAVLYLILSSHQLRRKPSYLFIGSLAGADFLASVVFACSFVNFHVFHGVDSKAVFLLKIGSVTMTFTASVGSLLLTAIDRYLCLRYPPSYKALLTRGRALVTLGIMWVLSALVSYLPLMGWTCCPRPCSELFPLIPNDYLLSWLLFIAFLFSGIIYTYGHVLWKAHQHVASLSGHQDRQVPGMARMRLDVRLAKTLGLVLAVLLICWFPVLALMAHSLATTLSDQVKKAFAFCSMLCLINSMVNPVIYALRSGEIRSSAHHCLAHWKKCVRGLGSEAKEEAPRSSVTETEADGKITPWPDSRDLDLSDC
T2 sequence (P21554 whole entry): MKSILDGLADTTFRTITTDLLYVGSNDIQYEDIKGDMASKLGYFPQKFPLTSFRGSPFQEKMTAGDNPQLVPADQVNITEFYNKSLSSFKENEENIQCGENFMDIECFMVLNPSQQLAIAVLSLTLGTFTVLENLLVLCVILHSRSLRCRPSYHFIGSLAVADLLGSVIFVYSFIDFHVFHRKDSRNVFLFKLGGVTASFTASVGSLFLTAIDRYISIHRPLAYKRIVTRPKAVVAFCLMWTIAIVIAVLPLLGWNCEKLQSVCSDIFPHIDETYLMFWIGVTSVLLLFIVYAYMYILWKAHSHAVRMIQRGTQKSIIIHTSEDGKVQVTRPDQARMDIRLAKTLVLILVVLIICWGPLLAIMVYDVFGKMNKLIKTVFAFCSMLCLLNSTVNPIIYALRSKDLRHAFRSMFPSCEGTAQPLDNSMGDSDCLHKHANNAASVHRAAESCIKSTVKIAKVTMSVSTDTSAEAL

| SMILES | Ki (CB2 receptor [1]) [nM] | IC50 (CB1 receptor [2]; [6]) [nM] | IC50 (CB2 receptor [3]) [nM] | Ki (CB1 receptor [4]) [nM] | inhibition in vivo at 3 % ([5]; Mus musculus) [%] | inhibition in vivo at 2 % ([5]; Mus musculus) [%] | Ki (CB2 receptor [1]; [7]) [nM] | Ki (CB1 receptor [4]; [8]) [nM] | inhibition in vivo at 1 % ([5]; Mus musculus) [%] | IC50 (CB1 receptor [2]) [nM] | inhibition in vivo at 0.5 % ([5]; Mus musculus) [%] | IC50 (CB1 receptor [2]; inhibition of forskolin (4 μM)-stimulated cAMP formation, CHO cells expressing human CB1, read-out: Agonist activity (nM) CB1) [nM] | IC50 (CB2 receptor [3]; inhibition of forskolin (4 μM)-stimulated cAMP formation, CHO cells expressing human CB2, read-out: Agonist activity (nM) CB2) [nM] | inhibition in vivo at 1 % ([5]; applied as acetone solution 50 μL, concentration 1.0%, mouse, Compound 48/80) [%] |
| --- | --- | --- | --- | --- | --- | --- | --- | --- | --- | --- | --- | --- | --- | --- |
| CC(C)(NC(=O)c1cc2c(n(CC3CCCCC3)c1=O)CCCCCC2)C(=O)Nc1ccc(NS(C)(=O)=O)cc1 [Compound I-533] | < 2 | > 2000 | < 2 | 21 | 73 | – | – | – | – | – | – | – | – | – |
| CC(C)CCn1c2c(cc(C(=O)NC(C(=O)O)c3cccs3)c1=O)CCCCCC2 (stereo not shown) [Compound I-551] | 2.2 | 135 | < 2 | 50 | – | 51 | – | – | – | – | – | – | – | – |
| CC(C)(NC(=O)c1cc2c(n(CC3CCCCC3)c1=O)CCCCCC2)C(=O)NNC(=O)c1cccnc1 [Compound I-556] | < 2 | 357 | 3.5 | 8.1 | 76 | – | – | – | – | – | – | – | – | – |
| CC(C)(C)OC(=O)NC1CCN(C(=O)C(C)(C)NC(=O)c2cc3c(n(CC4CCCCC4)c2=O)CCCCCC3)CC1 [Compound I-570] | 11 | 709 | 12 | 68 | 84 | – | – | – | – | – | – | – | – | – |
| CC(C)(NC(=O)c1cc2c(n(CC3CCCCC3)c1=O)CCCCCC2)C(=O)N1CCC(NS(C)(=O)=O)CC1 [Compound I-572] | – | 397 | 2.4 | – | – | – | 4.4 | 39 | 97 | – | – | – | – | – |
| CC(=O)N1CCN(C(=O)C(C)(C)NC(=O)c2cc3c(n(CC4CCCCC4)c2=O)CCCCCC3)CC1 [Compound I-579] | 7.3 | – | 27 | – | 99 | – | – | 158 | – | 431 | – | – | – | – |
| CC(C)(NC(=O)c1cc2c(n(CC3CCCCC3)c1=O)CCCCCC2)C(=O)C1CCCC(C(N)=O)N1 (stereo not shown) [Compound I-580] | 7.4 | 41 | 48 | 24 | 98 | – | – | – | – | – | – | – | – | – |
| CC(C)(CNCCC(N)=O)NC(=O)c1cc2c(n(CC3CCCCC3)c1=O)CCCCCC2 [Compound I-588] | 10 | 72 | 5.7 | 41 | – | – | – | – | 81 | – | – | – | – | – |
| CNC(=O)CNC(=O)C(C)(C)NC(=O)c1cc2c(n(CC3CCCCC3)c1=O)CCCCCC2 [Compound I-590] | 16 | 51 | 2.4 | 66 | 75 | – | – | – | – | – | – | – | – | – |
| CCNC(=O)C1CCCN(C(=O)C(C)(C)NC(=O)c2cc3c(n(CC4CCCCC4)c2=O)CCCCCC3)C1 (stereo not shown) [Compound I-595] | 9.5 | – | 30 | – | 108 | – | – | 354 | – | 1210 | – | – | – | – |
| CCS(=O)(=O)NNC(=O)C(C)(C)NC(=O)c1cc2c(n(CC3CCCCC3)c1=O)CCCCCC2 [Compound I-596] | 22 | – | 30 | – | 60 | – | – | 341 | – | 312 | – | – | – | – |
| CC(C)NC(=O)NC1CCN(C(=O)C(C)(C)NC(=O)c2cc3c(n(CC4CCCCC4)c2=O)CCCCCC3)CC1 [Compound I-599] | 4 | 37 | 13 | 37 | – | – | – | – | – | – | 67 | – | – | – |
| CC(C)(NC(=O)c1cc2c(n(CC3CCCCC3)c1=O)CCCCCC2)C(=O)N1CCC(C(=O)N2CCCCC2)CC1 [Compound I-601] | 3.9 | 186 | 6.3 | 47 | – | – | – | – | 67 | – | – | – | – | – |
| CC(C)NC(=O)N1CCN(C(=O)C(C)(C)NC(=O)c2cc3c(n(CC4CCCCC4)c2=O)CCCCCC3)CC1 [Compound I-604] | 2.5 | 55 | 4.8 | 16 | 95 | – | – | – | – | – | – | – | – | – |
| CC(C)(NC(=O)c1cc2c(n(CC3CCCCC3)c1=O)CCCCCC2)C(=O)N1CCC(C(=O)NNS(C)(=O)=O)CC1 [Compound I-606] | 4.4 | 118 | 8.7 | 60 | – | – | – | – | 86 | – | – | – | – | – |
| CCCCNC(=O)C1CCCN(C(=O)C(C)(C)NC(=O)c2cc3c(n(CC4CCCCC4)c2=O)CCCCCC3)C1 (stereo not shown) [Compound I-608] | 11 | > 2000 | 3.5 | 527 | 75 | – | – | – | – | – | – | – | – | – |
| CC(C)(NC(=O)c1cc2c(n(CC3CCCCC3)c1=O)CCCCCC2)C(=O)N1CCC(C(=O)N2CCOCC2)CC1 [Compound I-617] | 6.6 | 79 | 18 | 295 | – | – | – | – | 96 | – | – | – | – | – |
| O=C(O)Cc1nsc(NC(=O)c2cc3c(n(CC4CCCCC4)c2=O)CCCCCC3)n1 [Compound X-21] | 3.3 | – | 30 | – | – | – | – | 1770 | 106 | > 2000 | – | – | – | – |
| O=C(N[C@@H](C(=O)O)c1ccccc1)c1cc2c(n(CCCC(F)(F)F)c1=O)CCCCCC2 [Compound X-54] | < 2 | > 2000 | 3.7 | 93 | – | – | – | – | 100 | – | – | – | – | – |
| O=C(O)CCc1csc(NC(=O)c2cc3c(n(CC4CCCCC4)c2=O)CCCCCC3)n1 [Compound X-64] | – | – | – | – | – | – | 18 | 580 | – | – | – | 454 | 15 | 99 |
| CCCC(CC(=O)O)NC(=O)c1cc2c(n(CC3CCCCC3)c1=O)CCCCCC2 (stereo not shown) [Compound X-66] | 92 | – | 50 | – | – | – | – | > 2000 | 71 | 549 | – | – | – | – |
| CCCCC(CC(=O)O)NC(=O)c1cc2c(n(CC3CCCCC3)c1=O)CCCCCC2 (stereo not shown) [Compound X-67] | 96 | – | 40 | – | – | – | – | > 2000 | 79 | > 2000 | – | – | – | – |
| O=C(O)Cc1cnc(NC(=O)c2cc3c(n(CCCC(F)(F)F)c2=O)CCCCCC3)s1 [Compound X-115] | 3.3 | – | 8.6 | – | – | – | – | 1220 | – | > 2000 | 67 | – | – | – |
